# In US20210386367A1, “DEVICES AND SYSTEMS FOR GASTROINTESTINAL MICROBIOME DETECTION AND MANIPULATION” (Progenity, Inc., priority 2018, published 2021):
# Like-named read-outs stand apart in the source and are kept apart here.
# Key:
# [1] = tested on: Bacteroides non fragilis clinical isolates; assay: MIC distribution against clinical isolates; assay type: cell-based; settings: 29 Bacteroides non-fragilis isolates
# [2] = tested on: Prevotella spp. clinical isolates; assay: MIC distribution against clinical isolates; assay type: cell-based
# E. coli ATCC 25922 = assay: Broth microdilution MIC (time-kill study); assay type: cell-based, Escherichia coli
# [3] = tested on: E. coli ATCC 35218 (TEM-1 β-lactamase producer); assay: Broth microdilution MIC (time-kill study); assay type: cell-based, Escherichia coli
# S. pneumoniae ATCC 49619 [4] = assay: Broth microdilution MIC (time-kill study); assay type: cell-based, Streptococcus pneumoniae
# S. pyogenes ATCC 49399 = assay: Broth microdilution MIC (time-kill study); assay type: cell-based, Streptococcus pyogenes
# S. agalactiae ATCC 13813 = assay: Broth microdilution MIC (time-kill study); assay type: cell-based, Streptococcus agalactiae
# E. coli MMX 1312 = assay: Time-kill assay; assay type: cell-based, Escherichia coli; settings: for time-kill kinetics outcome (bactericidal = ≥3 log reduction in CFU per mL): 2×, 4×, 8× MIC, 2, 6, 24 hr
# S. pneumoniae ATCC 49619 [5] = assay: Time-kill assay; assay type: cell-based, Streptococcus pneumoniae; settings: 2×, 4×, 8× MIC; 2, 6, 24 hr
# [6] = tested on: three isolates each of E. coli, Streptococcus spp. and Bacteroides spp.; assay: Time-kill assay, overall summary; assay type: cell-based
# Procedure: MIC values were determined by broth microdilution in accordance with guidelines from the Clinical and Laboratory Standards Institute (CLSI; (1) “Methods for Dilution Antimicrobial Susceptibility Tests for Bacteria That Grow Aerobically; Approved Standard; 11th ed.,” CLSI standard M07, 2018; (2) “Performance Standards for Antimicrobial Susceptibility Testing; 28th ed.,” CLSI supplement M100, 2018).
# During the time-kill study, the test flasks were sampled at 2, 6, and 24 hr for determination of viable counts using the track dilution method as described above. Bacteroides was also sampled at 48 hr. All E. coli plates were incubated for 20-24 hr at 35° C., Streptococci for 20-24 hr at 35° C. in a CO2 incubator, and Bacteroides for approximately 48 hr at 35° C. in the anaerobe chamber. Colonies were counted manually, and the CFU/mL was determined from the average count of the duplicate plates, followed by the calculation of the log10 CFU/mL. The limit of detection for the assay was 50 CFU/mL.
# [7] = tested on: E. coli (ATCC 25922, ATCC 35218, MMX 1312); assay: Agar dilution MIC (spontaneous mutation study; strain in conditions); assay type: cell-based, Escherichia coli; settings: Escherichia coli
# [8] = MIC 0.5 μg/mL, 30 Prevotella spp. isolates
# [9] = MIC 1 μg/mL, 30 Prevotella spp. isolates
# [10] = MIC 4 μg/mL, 30 Prevotella spp. isolates
# [11] = MIC 8 μg/mL, 30 Prevotella spp. isolates
# [12] = MIC >32 μg/mL, 30 Prevotella spp. isolates
# [13] = MIC 16 μg/mL, 30 Prevotella spp. isolates
# [14] = MIC 32 μg/mL, 30 Prevotella spp. isolates
# [15] = MIC 64 μg/mL, 30 Prevotella spp. isolates
# [16] = Escherichia coli, ATCC25922, broth microdilution, read-out: MIC
# [17] = Streptococcus pneumoniae, ATCC49619, broth microdilution, read-out: MIC
# [18] = Streptococcus pyogenes, ATCC49399, broth microdilution, read-out: MIC
# [19] = S. agalacttae ATCC 13813 (so in the source)
# [20] = Streptococcus agalactiae, ATCC13813, broth microdilution, read-out: MIC
# [21] = read-out: Agar MIC, E. coli ATCC 25922
# [22] = read-out: Agar MIC, E. coli ATCC 35218
# [23] = read-out: Agar MIC, E. coli MMX 1312
# [24] = MIC 0.015 μg/mL, 30 Prevotella spp. isolates
# [25] = MIC 0.03 μg/mL, 30 Prevotella spp. isolates
# [26] = MIC 0.06 μg/mL, 30 Prevotella spp. isolates
# [27] = MIC ≤0.008 μg/mL, 30 Prevotella spp. isolates
compound,measurement,setting,value
Cc1ncc([N+](=O)[O-])n1CCO [MTZ],Cumulative percentage of isolates inhibited at MIC,[1]; MIC 0.5 μg/mL,55.2%
same,Number of test isolates at MIC,[1]; MIC 0.5 μg/mL,12
same,Cumulative percentage of isolates inhibited at MIC,[1]; MIC 1 μg/mL,75.9%
same,Number of test isolates at MIC,[1]; MIC 1 μg/mL,6
same,Cumulative percentage of isolates inhibited at MIC,[1]; MIC 2 μg/mL,96.6%
same,Number of test isolates at MIC,[1]; MIC 2 μg/mL,6
same,Cumulative percentage of isolates inhibited at MIC,[1]; MIC >16 μg/mL,100.0%
same,Number of test isolates at MIC,[1]; MIC >16 μg/mL,1
same,Cumulative percentage of isolates inhibited at MIC,[2]; [8],46.7%
same,Number of test isolates at MIC,[2]; [8],8
same,Cumulative percentage of isolates inhibited at MIC,[2]; [9],76.7%
same,Number of test isolates at MIC,[2]; [9],9
same,Cumulative percentage of isolates inhibited at MIC,[2]; [10],83.3%
same,Number of test isolates at MIC,[2]; [10],2
same,Cumulative percentage of isolates inhibited at MIC,[2]; [11],96.7%
same,Number of test isolates at MIC,[2]; [11],4
same,Cumulative percentage of isolates inhibited at MIC,[2]; [12],100.0%
same,Number of test isolates at MIC,[2]; [12],1
CO/N=C(\C(=O)N[C@@H]1C(=O)N2C(C(=O)O)=C(CSc3nc(=O)c(=O)[nH]n3C)CS[C@H]12)c1csc(N)n1 [ceftriaxone],Cumulative percentage of isolates inhibited at MIC,[1]; MIC 1 μg/mL,3.4%
same,Number of test isolates at MIC,[1]; MIC 1 μg/mL,1
same,Cumulative percentage of isolates inhibited at MIC,[1]; MIC 2 μg/mL,6.9%
same,Number of test isolates at MIC,[1]; MIC 2 μg/mL,1
same,Cumulative percentage of isolates inhibited at MIC,[1]; MIC 4 μg/mL,13.8%
same,Number of test isolates at MIC,[1]; MIC 4 μg/mL,2
same,Cumulative percentage of isolates inhibited at MIC,[1]; MIC 16 μg/mL,24.1%
same,Number of test isolates at MIC,[1]; MIC 16 μg/mL,3
same,Cumulative percentage of isolates inhibited at MIC,[1]; MIC 32 μg/mL,27.6%
same,Number of test isolates at MIC,[1]; MIC 32 μg/mL,1
same,Cumulative percentage of isolates inhibited at MIC,[1]; MIC 64 μg/mL,34.5%
same,Number of test isolates at MIC,[1]; MIC 64 μg/mL,2
same,Cumulative percentage of isolates inhibited at MIC,[2],100.0%
same,Number of test isolates at MIC,[2],3
same,Cumulative percentage of isolates inhibited at MIC,[2]; [8],20.0%
same,Number of test isolates at MIC,[2]; [8],1
same,Cumulative percentage of isolates inhibited at MIC,[2]; [10],33.3%
same,Number of test isolates at MIC,[2]; [10],4
same,Cumulative percentage of isolates inhibited at MIC,[2]; [11],36.7%
same,Number of test isolates at MIC,[2]; [11],1
same,Cumulative percentage of isolates inhibited at MIC,[2]; [13],46.7%
same,Number of test isolates at MIC,[2]; [13],3
same,Cumulative percentage of isolates inhibited at MIC,[2]; [14],66.7%
same,Number of test isolates at MIC,[2]; [14],6
same,Cumulative percentage of isolates inhibited at MIC,[2]; [15],90.0%
same,Number of test isolates at MIC,[2]; [15],7
same,MIC,E. coli ATCC 25922; E. coli ATCC 25922,0.06 µg/mL
same,MIC,E. coli ATCC 25922; [16],0.06 µg/mL
same,MIC,[3]; E. coli ATCC 35218,0.03 µg/mL
same,MIC,"[3]; Escherichia coli, ATCC35218",0.03 µg/mL
same,MIC,S. pneumoniae ATCC 49619 [4]; S. pneumoniae ATCC 49619,0.06 µg/mL
same,MIC,S. pneumoniae ATCC 49619 [4]; [17],0.06 µg/mL
same,MIC,S. pyogenes ATCC 49399; S. pyogenes ATCC 49399,0.015 µg/mL
same,MIC,S. pyogenes ATCC 49399; [18],0.015 µg/mL
same,MIC,S. agalactiae ATCC 13813; [19],0.015 µg/mL
same,MIC,S. agalactiae ATCC 13813; [20],0.015 µg/mL
same,time-kill kinetics outcome (bactericidal = ≥3 log reduction in CFU per mL),E. coli MMX 1312,killing at 6 and 24 hr that approached 3-logs
same,time-kill kinetics outcome (bactericidal = ≥3 log reduction in CFU per mL),S. pneumoniae ATCC 49619 [5],all three drug concentrations tested demonstrated bactericidal effects at 24 hr
same,overall time-kill outcome,[6],bactericidal activity
same,MIC,[7]; [21],0.06 µg/mL
same,MIC,[7]; [22],0.03 µg/mL
same,MIC,[7]; [23],4 µg/mL
same,MIC,"[7]; read-out: MIC value (agar dilution), E. coli MMX 1312",4 µg/mL
same,MIC,"[7]; read-out: MIC values (agar dilution), E. coli excluding E. coli MMX 1312 (stated jointly with Streptococcus spp.)",0.03 to 0.06 µg/mL
C[C@@H](O)[C@H]1C(=O)N2C(C(=O)O)=C(S[C@@H]3CN[C@H](C(=O)N(C)C)C3)[C@H](C)[C@H]12 [meropenem],Cumulative percentage of isolates inhibited at MIC,[1]; MIC 0.06 μg/mL,6.9%
same,Number of test isolates at MIC,[1]; MIC 0.06 μg/mL,2
same,Cumulative percentage of isolates inhibited at MIC,[1]; MIC 0.5 μg/mL,75.9%
same,Number of test isolates at MIC,[1]; MIC 0.5 μg/mL,10
same,Cumulative percentage of isolates inhibited at MIC,[1]; MIC 1 μg/mL,82.8%
same,Number of test isolates at MIC,[1]; MIC 1 μg/mL,2
same,Cumulative percentage of isolates inhibited at MIC,[1]; MIC 2 μg/mL,93.1%
same,Number of test isolates at MIC,[1]; MIC 2 μg/mL,3
same,Cumulative percentage of isolates inhibited at MIC,[1]; MIC 4 μg/mL,96.6%
same,Number of test isolates at MIC,[1]; MIC 4 μg/mL,1
same,Cumulative percentage of isolates inhibited at MIC,[1]; MIC >8 μg/mL,100.0%
same,Number of test isolates at MIC,[1]; MIC >8 μg/mL,1
same,Cumulative percentage of isolates inhibited at MIC,[2]; [24],16.7%
same,Number of test isolates at MIC,[2]; [24],3
same,Cumulative percentage of isolates inhibited at MIC,[2]; [25],36.7%
same,Number of test isolates at MIC,[2]; [25],6
same,Cumulative percentage of isolates inhibited at MIC,[2]; [26],76.7%
same,Number of test isolates at MIC,[2]; [26],12
same,Cumulative percentage of isolates inhibited at MIC,[2]; [27],6.7%
same,Number of test isolates at MIC,[2]; [27],2
same,MIC,E. coli ATCC 25922; E. coli ATCC 25922,0.015 µg/mL
same,MIC,E. coli ATCC 25922; [16],0.015 µg/mL
same,MIC,[3]; E. coli ATCC 35218,0.015 µg/mL
same,MIC,"[3]; Escherichia coli, ATCC35218",0.015 µg/mL
same,MIC,S. pneumoniae ATCC 49619 [4]; S. pneumoniae ATCC 49619,0.06 µg/mL
same,MIC,S. pneumoniae ATCC 49619 [4]; [17],0.06 µg/mL
same,MIC,S. pyogenes ATCC 49399; S. pyogenes ATCC 49399,0.004 µg/mL
same,MIC,S. pyogenes ATCC 49399; [18],0.004 µg/mL
same,MIC,S. agalactiae ATCC 13813; [19],0.008 µg/mL
same,MIC,S. agalactiae ATCC 13813; [20],0.008 µg/mL
same,time-kill kinetics outcome (bactericidal = ≥3 log reduction in CFU per mL),E. coli MMX 1312,regrowth was observed at 24 hr for all concentrations
same,CFU decrease,"E. coli MMX 1312; 8×MIC, 6 hr timepoint",3 log10 CFU
same,time-kill kinetics outcome (bactericidal = ≥3 log reduction in CFU per mL),S. pneumoniae ATCC 49619 [5],all three drug concentrations tested demonstrated bactericidal effects at 24 hr
same,overall time-kill outcome,[6],bactericidal activity
same,MIC,[7]; [21],0.015 µg/mL
same,MIC,[7]; [22],0.015 µg/mL
same,MIC,[7]; [23],0.015 µg/mL
same,MIC,"[7]; read-out: MIC values (agar dilution), over evaluated E. coli isolates (range stated jointly with other groups)",0.008 to 0.12 µg/mL
"CN[C@H](CC(C)C)C(=O)N[C@H]1C(=O)N[C@@H](CC(N)=O)C(=O)N[C@H]2C(=O)N[C@H]3C(=O)N[C@H](C(=O)N[C@H](C(=O)O)c4cc(O)cc(O)c4-c4cc3ccc4O)[C@H](O)c3ccc(c(Cl)c3)Oc3cc2cc(c3O[C@@H]2O[C@H](CO)[C@@H](O)[C@H](O)[C@H]2O[C@H]2C[C@](C)(N)[C@H](O)[C@H](C)O2)Oc2ccc(cc2Cl)[C@H]1O [vancomycin, Vancomycin]",MIC,"E. coli ATCC 25922; Escherichia coli, ATCC25922, E. coli ATCC 25922, read-out: MIC",> 16 µg/mL
same,MIC,"[3]; Escherichia coli, ATCC35218, E. coli ATCC 35218, read-out: MIC",> 16 µg/mL
same,MIC,"S. pneumoniae ATCC 49619 [4]; Streptococcus pneumoniae, ATCC49619, S. pneumoniae ATCC 49619, read-out: MIC",0.25 µg/mL
same,MIC,"S. pyogenes ATCC 49399; Streptococcus pyogenes, ATCC49399, S. pyogenes ATCC 49399, read-out: MIC",0.25 µg/mL
same,MIC,"S. agalactiae ATCC 13813; Streptococcus agalactiae, ATCC13813, S. agalacttae ATCC 13813 (so in the source), read-out: MIC",0.5 µg/mL
piperacillin/tazobactam [piperacillin-tazobactam],MIC,E. coli ATCC 25922; E. coli ATCC 25922,4/4
same,MIC,[3]; E. coli ATCC 35218,2/4
same,MIC,S. pneumoniae ATCC 49619 [4]; S. pneumoniae ATCC 49619,1 µg/mL
same,MIC,S. pyogenes ATCC 49399; S. pyogenes ATCC 49399,0.06 µg/mL
same,MIC,S. agalactiae ATCC 13813; [19],0.06 µg/mL
